Source: patent US12128034B2, “Combinations of beta-lactam compounds, probenecid, and valproic acid and uses thereof” (Iterum Therapeutics International Limited, priority 2020, dated 2024)
Values belong to the compound of their own block, whether it stands above or below them.

Tests used:
[1] = may result in loss of seizure control; cited from earlier work
clinical = settings: in vivo; for AUC(0-t): AUC0-t; for AUC: AUC0-tau
Method: For Cohorts 2 and 3, all patients were administered valproic acid daily. Starting on the fifth day, Cohort 3 was administered the sulopenem etzadroxil tablet (“Etzadroxil Tablet”) alone and Cohort 2 was administered the bilayer tablet of sulopenem etzadroxil and probenecid (500 mg sulopenem etzadroxil+500 mg probenecid film-coated bilayer tablet; “Bilayer Tablet”).

[2] = Dacey and Sande 1974; cited from earlier work
[3] = in vivo
Porphyromonas gingivalis = settings: Ednie and Appelbaum 2009; cited from earlier work

SMILES: C[C@@H](O)[C@H]1C(=O)N2C(C(=O)O)=C(SCCN=CN)C[C@H]12 [imipenem]
serum valproic acid concentration in patients receiving carbapenem antibiotics [1]: clinically significant reduction

SMILES: C[C@@H](O)[C@H]1C(=O)N2C(C(=O)O)=C(S[C@@H]3CN[C@H](C(=O)Nc4cccc(C(=O)O)c4)C3)[C@H](C)[C@H]12 [ertapenem]
serum valproic acid concentration in patients receiving carbapenem antibiotics [1]: clinically significant reduction

SMILES: C[C@@H](O)[C@H]1C(=O)N2C(C(=O)O)=C(S[C@H]3CC[S@@+]([O-])C3)S[C@H]12 [sulopenem]
activity against Porphyromonas gingivalis (Porphyromonas gingivalis): active | tolerability and safety [3]: well tolerated and safe | effect on the steady-state pharmacokinetic profile of valproic acid (clinical): weak effect

SMILES: C[C@@H](O)[C@H]1C(=O)N2C(C(=O)O)=C(S[C@@H]3CN[C@H](C(=O)N(C)C)C3)[C@H](C)[C@H]12 [meropenem]
serum valproic acid concentration in patients receiving carbapenem antibiotics [1]: clinically significant reduction

Now from value to compound, other results behind:

time at which the impact of probenecid on valproic acid bioavailability can occur (clinical; human): as early as three days
SMILES: CCCN(CCC)S(=O)(=O)c1ccc(C(=O)O)cc1 [probenecid]
concentrations of β-lactam compounds in the cerebrospinal fluid [2]: increase

tlast, Mean (SD) (clinical; male, human): 11.920 (0.0000) h | AUC0-t, Mean (SD) (clinical; male, human, po): 570.83 (122.096) h · μg/mL | AUC0-tau, Mean (SD) (clinical; male, human, po): 554.71 (140.804) h · μg/mL | Tmax (clinical; male, human, po): 4 h | tmax, Median (min, max) (clinical; male, human, po): 4.000 (2.00, 5.00) h | AUC(0-t) (clinical; male, human, po, GM (CV %)): 517 µg·h/mL | AUC(0-t) (clinical; male, human, po, Mean (SD)): 522 µg·h/mL | AUC (clinical; male, human, po, GM (CV %)): 518 µg·h/mL | AUC (clinical; male, human, po, Mean (SD)): 522 µg·h/mL
SMILES: CCCC(CCC)C(=O)O [VPA, valproic acid]
tolerability and safety [3]: well tolerated and safe
